Entries after “also recorded” stand apart in the source; their conditions may differ.
Legend:
CYP3A [1] = tested on: CYP3A
[2] = Safety and tolerability in loperamide interaction study
CYP3A [3] = experiment: Drug-drug interaction study: multiple-dose lonafarnib on pharmacokinetics of single-dose midazolam; details: human, in vivo, 100 mg
Text: (§1) An open-label, single-center, two-period, single-sequence, multi-drug-drug interaction study to evaluate the effects of multiple-dose lonafarnib on the pharmacokinetics of single-dose midazolam, a sensitive cytochrome p450-3a substrate.
(§2) Given the profound increase, sensitive substrates of CYP3A should be contraindicated with lonafarnib.

cytochrome P450 CYP3A = experiment: as above
Text: as §1, §2

[4] = Renal clearance and renal impairment study of lonafarnib; type: in vivo, human
Text: Lonafarnib is renally cleared <1% and no meaningful differences would be expected in subjects with renal impairment. […] Thus, lonafarnib is […].

CYP3A [5] = experiment: In vitro and in vivo CYP inhibition studies (CYP3A)
Text: The following medicines are contraindicated when used with lonafarnib and unless otherwise noted, the contraindication is based on the potential for lonafarnib to inhibit metabolism of the co-administered medicinal product, resulting in increased exposure to the co-administered medicinal product and risk of clinically significant adverse effects.
(§3) Concomitant administration of lonafarnib with sensitive CYP3A or CYP2C19 substrates and strong or moderate CYP3A4 inhibitors or inducers, including herbal supplements can increase exposure of the co-administered medicinal product or lonafarnib resulting in risk of clinically significant adverse events or decrease exposure of lonafarnib, which may impact efficacy. Medicinal products that are sensitive CYP3A or CYP2C19 substrates, strong or moderate CYP3A inhibitors, or strong or moderate CYP3A inducers should be discontinued. If treatment cannot safety be discontinued or an alternative drug is not available, lonafarnib should be stopped during the course of treatment unless the benefit outweighs the possible risks.

[6] = in vivo
Procedure: (§4) This study was conducted as an open-label, drug-drug interaction (DDI) study, a food-effect study with LNF alone, and a food-effect study with LNF+ritonavir (RTV). This study assessed the effects of multiple-dose LNF (75 mg twice daily×5 days) on the PK of single dose omeprazole (1×40-mg capsule) relative to omeprazole alone in.
Other sensitive CYP2C19 substrates should be monitored during concomitant administration with LNF. […] Extent of exposure was 6,200 ng·h/mL and the T1/2 was 5.57 hours. Trough LNF concentrations increased from Day 7 to Day 9 (AM). By Day 10 trough levels stabilized, indicating steady-state LNF levels were achieved over 5 days of consecutive dosing. […] There were no deaths, SAEs, or other significant AEs. All AEs were Grade 1 or 2.

[7] = Food-effect evaluation of single-dose LNF; type: in vivo, human
Text: To evaluate the effect of a high-fat/high-calorie standard breakfast on the single-dose PK of LNF relative to a fasted state in healthy subjects (Group 2).
To evaluate the effect of a low-fat/low-calorie breakfast on the single-dose PK of LNF relative to a fasted state in healthy subjects (Group 2).
The effect of food (high-fat/high-calorie standard breakfast and low-fat/low-calorie breakfast) on the single-dose PK of LNF relative to the single-dose PK of LNF when administered under fasted conditions was evaluated.
• Period 1: Oral dose of LNF (75-mg capsule×1) on Day 1 (AM) under fed conditions (high-fat/high-calorie breakfast) • Period 2: Oral dose of LNF (75-mg capsule×1) on Day 4 (AM) under fed conditions (low-fat/low-calorie breakfast) • Period 3: Oral dose of LNF (75-mg capsule×1) on Day 7 (AM) under fasted conditions

CYP2C19 [8] = molecular target: T1, CYP2C19 (Homo sapiens, UniProt P33261); experiment: Drug-drug interaction study: multiple-dose LNF on PK of single-dose omeprazole; type: in vivo; set-up: single-dose omeprazole, a sensitive CYP2C19 substrate; endogenous in cells; host or cells: study subjects in vivo; details: for CYP2C19 inhibition in vivo (classification): lonafarnib 75 mg twice daily, omeprazole probe
Procedure: as §4

CYP2C19 [9] = molecular target: T1, CYP2C19; experiment: In vitro and in vivo CYP inhibition studies (CYP2C19)
Text: as §3

P-gp = P-gp (Homo sapiens, UniProt P08183); details: in vivo
CYP3A4 = CYP3A4 (Homo sapiens, UniProt P08684); experiment: Metabolism of lonafarnib
Text: Lonafarnib has not been studied in subjects with hepatic impairment.

[10] = Multiple-dose lonafarnib PK (100 mg twice daily) in loperamide study; type: in vivo, human
CYP3A [11] = experiment: Co-administration of lonafarnib with ketoconazole, a strong CYP3A inhibitor; type: in vivo, human; details: co-administered with ketoconazole 200 mg twice daily
[12] = co-administered with lonafarnib vs midazolam alone
[13] = lonafarnib 75 mg twice daily co-administered
[14] = single-dose omeprazole with multiple-dose LNF
[15] = with multiple-dose LNF vs alone

T1 sequence (P33261 whole entry): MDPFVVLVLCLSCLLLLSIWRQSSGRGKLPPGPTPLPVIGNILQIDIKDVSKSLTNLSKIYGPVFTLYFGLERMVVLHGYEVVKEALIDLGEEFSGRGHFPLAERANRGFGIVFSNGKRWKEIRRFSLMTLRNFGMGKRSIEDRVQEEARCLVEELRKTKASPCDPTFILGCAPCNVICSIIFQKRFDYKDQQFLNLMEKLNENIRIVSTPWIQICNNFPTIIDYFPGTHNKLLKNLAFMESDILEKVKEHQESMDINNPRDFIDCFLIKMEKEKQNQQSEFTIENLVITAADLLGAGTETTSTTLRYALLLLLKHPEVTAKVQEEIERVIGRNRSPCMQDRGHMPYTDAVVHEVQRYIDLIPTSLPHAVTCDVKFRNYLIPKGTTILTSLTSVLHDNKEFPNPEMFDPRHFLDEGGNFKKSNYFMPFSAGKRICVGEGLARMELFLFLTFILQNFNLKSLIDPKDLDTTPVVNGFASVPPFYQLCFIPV
Chain of CYP3A4 (P08684 whole entry): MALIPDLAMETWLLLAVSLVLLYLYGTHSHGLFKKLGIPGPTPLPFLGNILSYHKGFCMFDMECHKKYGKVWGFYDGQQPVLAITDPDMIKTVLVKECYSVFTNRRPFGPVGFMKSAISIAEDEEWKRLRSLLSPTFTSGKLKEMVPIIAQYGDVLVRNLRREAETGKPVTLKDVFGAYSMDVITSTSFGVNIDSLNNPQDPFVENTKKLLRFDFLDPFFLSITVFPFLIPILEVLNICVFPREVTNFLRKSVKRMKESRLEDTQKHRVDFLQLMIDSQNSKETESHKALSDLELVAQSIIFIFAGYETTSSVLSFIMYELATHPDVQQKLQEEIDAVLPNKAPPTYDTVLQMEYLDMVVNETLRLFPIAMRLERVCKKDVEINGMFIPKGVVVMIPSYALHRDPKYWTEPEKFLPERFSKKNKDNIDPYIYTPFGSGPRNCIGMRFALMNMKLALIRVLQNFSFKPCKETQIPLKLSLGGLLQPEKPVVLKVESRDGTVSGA
Chain of P-gp (P08183 whole entry): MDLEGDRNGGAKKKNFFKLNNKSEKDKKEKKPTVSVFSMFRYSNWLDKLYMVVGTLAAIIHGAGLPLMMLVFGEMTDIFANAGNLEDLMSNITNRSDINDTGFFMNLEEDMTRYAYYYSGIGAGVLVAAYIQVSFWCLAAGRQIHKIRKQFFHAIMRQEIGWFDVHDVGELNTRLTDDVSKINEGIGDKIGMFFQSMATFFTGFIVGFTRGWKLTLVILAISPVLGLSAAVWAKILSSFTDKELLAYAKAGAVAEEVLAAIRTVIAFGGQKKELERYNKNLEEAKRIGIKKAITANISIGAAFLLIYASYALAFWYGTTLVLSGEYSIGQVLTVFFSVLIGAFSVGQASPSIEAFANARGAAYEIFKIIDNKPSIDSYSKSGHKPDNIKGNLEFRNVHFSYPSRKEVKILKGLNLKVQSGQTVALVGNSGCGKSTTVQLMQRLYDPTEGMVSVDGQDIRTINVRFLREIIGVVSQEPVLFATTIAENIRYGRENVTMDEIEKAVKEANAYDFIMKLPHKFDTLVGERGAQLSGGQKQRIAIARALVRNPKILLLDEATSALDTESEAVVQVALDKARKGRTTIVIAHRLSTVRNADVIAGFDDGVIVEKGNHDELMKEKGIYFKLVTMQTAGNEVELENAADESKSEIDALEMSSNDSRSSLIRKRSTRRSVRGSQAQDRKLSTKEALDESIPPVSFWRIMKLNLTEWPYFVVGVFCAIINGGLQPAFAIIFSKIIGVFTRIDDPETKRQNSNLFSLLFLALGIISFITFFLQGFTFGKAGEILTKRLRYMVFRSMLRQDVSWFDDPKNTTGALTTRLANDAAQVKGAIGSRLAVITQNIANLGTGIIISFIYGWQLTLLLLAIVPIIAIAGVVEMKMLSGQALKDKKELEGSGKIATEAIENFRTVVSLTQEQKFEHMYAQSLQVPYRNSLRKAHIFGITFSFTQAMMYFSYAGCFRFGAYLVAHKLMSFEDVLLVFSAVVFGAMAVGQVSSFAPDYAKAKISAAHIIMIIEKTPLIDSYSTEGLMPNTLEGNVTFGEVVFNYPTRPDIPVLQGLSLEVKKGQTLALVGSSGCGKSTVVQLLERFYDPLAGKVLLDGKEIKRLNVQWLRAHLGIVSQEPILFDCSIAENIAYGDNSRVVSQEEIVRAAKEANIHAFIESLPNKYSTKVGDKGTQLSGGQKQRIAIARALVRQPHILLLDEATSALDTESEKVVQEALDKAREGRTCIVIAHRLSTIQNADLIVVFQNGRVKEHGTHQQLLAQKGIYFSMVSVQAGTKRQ

CN(C)C(=O)C(CCN1CCC(O)(c2ccc(Cl)cc2)CC1)(c1ccccc1)c1ccccc1 [loperamide]
increase of loperamide exposures (upper limit) (CYP3A [1]; coadministration of lonafarnib with loperamide): up to 4.6 fold
loperamide Cmax increase (CYP3A [1]; single-dose loperamide 2 mg after lonafarnib 100 mg twice daily 5 days vs loperamide alone): ~3 fold
loperamide Kel compared with loperamide alone (CYP3A [1]; with multiple-dose lonafarnib): similar
tolerability ([2]; healthy subjects, lonafarnib 100 mg twice daily and loperamide 2 mg): generally tolerated lonafarnib and loperamide well
GI adverse events vs lonafarnib alone ([2]; loperamide coadministered with lonafarnib): fewer GI adverse events

Cc1ncc2n1-c1ccc(Cl)cc1C(c1ccccc1F)=NC2 [midazolam]
Tmax (CYP3A [3]): 0.5 h
midazolam AUC increase (cytochrome P450 CYP3A; [12]): approximately 7 fold
midazolam Cmax increase (cytochrome P450 CYP3A; [12]): approximately 3 fold
change in midazolam Cmax, AUC0-t and AUC0-inf (cytochrome P450 CYP3A; single-dose midazolam with multiple-dose lonafarnib): increased statistically significantly

NC(=O)N1CCC(CC(=O)N2CCC([C@H]3c4ncc(Br)cc4CCc4cc(Cl)cc(Br)c43)CC2)CC1 [lonafarnib]
fraction renally cleared ([4]; in vivo): < 1%
lonafarnib exposure in renal impairment ([4]; subjects with severe renal impairment): exposures increase
CYP3A inhibition (classification) (CYP3A [5]): potent CYP3A time-dependent and mechanism based inhibitor
adverse event incidence [6]: More subjects experienced AEs taking LNF
LNF CL/F higher than fasted state ([7]; single 75 mg dose, 2 fed states vs fasted): 33-35%
decrease of LNF exposure (AUC0-t and AUC0-inf) ([7]; single 75 mg dose, fed states vs fasted): 21-29%
LNF Cmax decrease relative to fasted state ([7]; single 75 mg dose, high-fat/high-calorie breakfast): 55%
LNF Cmax decrease relative to fasted state ([7]; single 75 mg dose, low-fat/low-calorie breakfast): 25%
LNF Tmax relative to fasted state ([7]; single dose with high-fat/high-calorie or low-fat/low-calorie meal): delayed
CYP2C19 inhibition in vivo (classification) (CYP2C19 [8]): moderate CYP2C19 inhibitor
CYP2C19 inhibition in vivo (classification) (CYP2C19 [8]; listed as LNF): direct/reversible inhibition of CYP2C19 in a moderate magnitude
CYP2C19 inhibition (classification) (CYP2C19 [9]): moderate CYP2C19 inhibitor
P-gp inhibition (classification) (P-gp): weak P-gp inhibitor
route of metabolism (CYP3A4): extensively metabolised via the cytochrome P450 enzyme system in the liver; also recorded: metabolized predominantly via CYP3A4 enzyme
Cmax ([10]; human, in vivo, steady state): 964 ng/mL
half-life ([10]; human, in vivo, steady state, read-out: lonafarnib T1/2 (converted)): 4.22 h
lonafarnib extent of exposure ([10]; steady state): 6,940 ng·h/mL
study day by which steady state was achieved ([10]; trough lonafarnib concentrations): ≤ 8 days
lonafarnib AUC increase (CYP3A [11]): approximately 5 fold
lonafarnib Cmax increase (CYP3A [11]): approximately 3.6 fold

COc1ccc2[nH]c([S+]([O-])Cc3ncc(C)c(OC)c3C)nc2c1 (stereo not shown) [omeprazole]
change in omeprazole CL/F (CYP2C19 [8]; coadministration with LNF): decreased
change in omeprazole Kel (CYP2C19 [8]; coadministration with LNF): decreased
change in omeprazole T1/2 (CYP2C19 [8]; coadministration with LNF): increased
omeprazole AUC increase (CYP2C19 [8]; [13]): approximately 1.6 fold
omeprazole Cmax increase (CYP2C19 [8]; [13]): approximately 1.3 fold
omeprazole Cmax increase (CYP2C19 [8]; single-dose omeprazole 40 mg with multiple-dose LNF 75 mg twice daily 5 days): 44%
omeprazole AUC0-t and AUC0-inf increase (CYP2C19 [8]; [14]): approximately 2 fold
omeprazole Tmax with vs without LNF (CYP2C19 [8]; [14]): approximately the same time
omeprazole AUC0-inf geometric mean ratio (CI) (CYP2C19 [8]; [15]): 1.600 (1.32, 1.94)
omeprazole AUC0-t geometric mean ratio (CI) (CYP2C19 [8]; [15]): 1.602 (1.34, 1.91)
omeprazole Cmax geometric mean ratio (CI) (CYP2C19 [8]; [15]): 1.275 (1.01, 1.61)

Source: patent US20240207243A1, “METHOD OF TREATING LAMINOPATHIES” (Eiger Biopharmaceuticals, Inc., priority 2019, published 2024)
